Among the data in patent US12668584B2, “Heterocyclic compounds as kinase inhibitors for therapeutic uses” (National Health Research Institutes, priority 2019, dated 2026) are IC50 and GI50 values, retold here.

For assay [1], the target named is T1, CSF1R kinase (recombinant N-terminal GST-CSF1R, residues L534-C972) (Homo sapiens, UniProt P07333).
T1 construct: Recombinant N-terminal GST-CSF1R (CSF1R residues L534-C972) containing the CSFIR kinase domain; made in house; host or cells: Sf9 insect cells
T1 sequence (P07333 534-972): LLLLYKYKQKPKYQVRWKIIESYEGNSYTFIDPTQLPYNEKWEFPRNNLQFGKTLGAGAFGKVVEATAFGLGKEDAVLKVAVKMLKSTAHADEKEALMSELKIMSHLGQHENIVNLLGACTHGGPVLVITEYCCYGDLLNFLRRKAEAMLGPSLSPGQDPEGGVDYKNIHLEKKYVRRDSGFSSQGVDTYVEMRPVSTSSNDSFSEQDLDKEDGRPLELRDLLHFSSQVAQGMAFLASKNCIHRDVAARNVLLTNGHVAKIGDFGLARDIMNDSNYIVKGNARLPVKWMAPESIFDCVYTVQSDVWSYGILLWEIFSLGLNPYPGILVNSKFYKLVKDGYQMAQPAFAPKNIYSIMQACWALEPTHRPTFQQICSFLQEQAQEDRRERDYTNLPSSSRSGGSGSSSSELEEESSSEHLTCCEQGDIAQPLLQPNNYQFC
The assay is described as follows: CSF1R Kinase-Glo assay. The conditions noted are these: 40 μM ATP, 30° C. 180 min, read-out: Enzymatic Assay CSF1R enzyme IC50. The format is biochemical. The method, then:
A study was conducted to test certain compounds described in EXAMPLE 1 in inhibiting CSF1R kinase activity.
Activity of CSF1R kinase was determined using a CSF1R Kinase-Glo assay. Recombinant N-terminal GST-CSF1R (CSF1R residues L534-C972) containing the CSFIR kinase domain was expressed in Sf9 insect cells and purified. The kinase assay was carried out in 96-well plates at 30° C. for 180 min with the tested compounds in a final volume of 50 μl including the following components: 25 mM Tris-HCl pH 7.4, 4 mM MnCl2, 10 mM MgCl2, 0.01% BSA, 0.5 mM NA3VO4, 0.02% Triton X-100, 40 μM ATP, 2 mM DTT and 20 μM poly(Glu,Tyr) 4:1 peptide, and 600 ng recombinant GST-CSF1R. Following incubation, 50 μl Kinase-Glo Plus Reagent (Promega, Madison, WI, USA) was added and the mixture was incubated at 25° C. for 20 min. A 70-μL aliquot of each reaction mixture was transferred to a black microtiter plate and luminescence was measured on Wallac Vector 1420 multilabel counter (PerkinElmer, Shelton, CT, USA). Percentage inhibition values were obtained by comparison of reaction rate with the rates in control wells (i.e., in the absence of test compound). IC50 values were calculated from a series of percentage inhibition values determined at a range of test compound concentrations using GraphPad Prism version 6 software (GraphPad, San Diego, CA, USA).
For orientation: Kinase-Glo reads ATP consumption through a luciferase reaction.

Assay [2] relates to M-NFS-60 cells. The assay is described as follows: MTS cell viability assay, M-NFS-60. The format is cell-based. To be noted: 72 h, read-out: Cellular Proliferation Assay M-NFS-60 (nM) GI50. The method, then:
(§1) Studies were conducted to evaluate […] anticancer activity of certain compounds described in EXAMPLE 1 using 3-(4,5-dimethylthiazol-2-yl)-5-(3-carboxymethoxyphenyl)-2-(4-sulfophenyl)-2H-tetrazolium) (MTS) cell viability assays. Results from these studies are shown in Table 2 below (see columns 3 and 4).
(§2) The cell lines M-NFS-60 (ATCC® CRL-1838™) and BaF3-CSF1R-1600 were obtained from American Type Culture Collection (ATCC, Manassas, VA, USA). The stable BaF3-CSF1R-1600 cell line expresses ETV6-CSF1R fusion protein consisting of N-terminal ETS-variant gene 6 protein (ETV6 residues M1-G337) and CSF1R tyrosine kinase (CSF1R residues L533-C972). The M-NSF-60 and BaF3-CSF1R-1600 cells were cultured in RPMI1640 medium supplemented with 10% fetal bovine serum, 0.05 mM 2-ME, 10 U/ml penicillin, and 10 µg/ml streptomycin at 37° C. and 5% CO2.
(§3) M-NFS-60 and BaF3-CSF1R-1600 cells were seeded in 96-well plates at a density of 10000 cells/100 μl and 8000 cells/100 μl per well, respectively, for 16 h and treated with vehicle or various concentrations of test compounds in medium for 72 h. Viable cells were quantified using the MTS method (Promega, Madison, WI, USA) according to manufacturer's recommended protocol. The results were determined by measuring absorbance at 490 nm using a plate reader (Victor 2). The GI50 value was defined as the amount of compound that caused 50% reduction in cell viability in comparison with DMSO-treated (vehicle) control and was calculated using Prism GraphPad Prism version 6 software (GraphPad).

The subject of assay [3] is BaF3-CSF1R-1600 cells (express ETV6-CSF1R fusion protein). Kind of assay: MTS cell viability assay, BaF3-CSF1R-1600. The format is cell-based. To be noted: 72 h, read-out: Cellular Proliferation Assay BaF3-CSF1R GI50. As to the method:
as §1, §2, §3

A word on the IC50: it is the point on the concentration scale where inhibition reaches its midpoint. As for `CN(C)C1CCN(c2ccc3c(Oc4ccc(NC(=O)Nc5ccccc5)cc4)ncnc3c2)CC1` [Compound 11], the half-maximal inhibitory concentration (IC50) in assay [1] was in the range of 20 to 100 nM. The GI50 in assay [2] and in assay [3] was 20 to 100 nM each time.
For `CN(C)c1ccc2c(Oc3ccc(NC(=O)Nc4ccccc4F)cc3)ncnc2c1` [Compound 14], in assay [1], the half-inhibitory concentration (IC50) is under 20 nM. The GI50 is 100 to 1000 nM in assay [2] and under 20 nM in assay [3].
For the molecule `CN(C)c1ccc2c(Oc3ccc(NC(=O)Nc4ccccc4Cl)cc3)ncnc2c1` [Compound 15], in assay [1], the IC50 is under 20 nM. Moreover, the GI50 in assay [2] was in the range of 100 to 1000 nM; in assay [3], 20 to 100 nM.
Taken in the same sequence, the figures for `CN(C)c1ccc2c(Oc3ccc(NC(=O)Nc4cccc(Cl)c4)cc3)ncnc2c1` [Compound 16] were under 20 nM, 20 to 100 nM and 20 to 100 nM.
Take `COC1CCN(c2ccc3c(Oc4ccc(NC(=O)Nc5cccc(Cl)c5)cc4)ncnc3c2)CC1` [Compound 17]: the concentration for half-maximal inhibition (IC50) in assay [1] was under 20 nM. The GI50 in assay [2] and in assay [3] was 20 to 100 nM each time.
Turning to `CN(C)c1ccc2c(Oc3ccc(NC(=O)Nc4cccc(F)c4)cc3)ncnc2c1` [Compound 18], the IC50 in assay [1] is under 20 nM. Moreover, the GI50 lay in the range of 100 to 1000 nM in assay [2] and 20 to 100 nM in assay [3].
Taken in the same sequence, the figures for `CN(C)c1ccc2c(Oc3ccc(NC(=O)Nc4ccc(Cl)cc4)cc3)ncnc2c1` [Compound 19] were under 20 nM, 20 to 100 nM and under 20 nM.
Taken in the same sequence, the figures for `COC1CCN(c2ccc3c(Oc4ccc(NC(=O)Nc5ccc(Cl)cc5)cc4)ncnc3c2)CC1` [Compound 20] were under 20 nM, 20 to 100 nM and 20 to 100 nM.
Turning to `COc1ccc(NC(=O)Nc2ccc(Oc3ncnc4cc(N(C)C)ccc34)cc2)cc1` [Compound 21], the IC50 in assay [1] was under 20 nM. Besides, the GI50 in assay [2] and in assay [3] was 20 to 100 nM throughout.
Consider `CN(C)C1CCN(c2ccc3c(Oc4ccc(NC(=O)NCc5ccc(C(F)(F)F)nc5)cc4)ncnc3c2)CC1` [Compound 23], for which the IC50 in assay [1] lay within 20 to 100 nM. The GI50 in assay [2] and in assay [3] was 20 to 100 nM in each case.
As for `COC1CCN(c2ccc3c(Oc4ccc(NC(=O)NCc5ccc(C(F)(F)F)nc5)cc4)ncnc3c2)CC1` [Compound 24], the IC50 in assay [1] is under 20 nM. Besides, the GI50 in assay [2] and in assay [3] was 20 to 100 nM throughout.
Turning to `CN(C)c1ccc2c(Oc3ccc(NC(=O)NCc4ccc(C(F)(F)F)nc4)cc3Cl)ncnc2c1` [Compound 25], in assay [1], the half-maximal inhibitory concentration (IC50) was in the range of 20 to 100 nM. The GI50 in assay [2] was over 1000 nM; in assay [3] it was 100 to 1000 nM.
Turning to `COc1cc2nccc(Oc3ccc(NC(=O)NCc4ccc(C(F)(F)F)nc4)cc3)c2cc1OC` [Compound 26], the IC50 in assay [1] fell in the range of 20 to 100 nM. Besides, the results for the GI50 in assay [2] and in assay [3] were 100 to 1000 nM and 20 to 100 nM, respectively.
Turning to `CN1CCN(c2ccc3c(Oc4ccc(NC(=O)NCc5ccc(C(F)(F)F)nc5)cc4)ncnc3c2)CC1` [Compound 28], in assay [1], the half-maximal inhibitory concentration (IC50) lay in the range of 20 to 100 nM. Also, the GI50 was 20 to 100 nM in assay [2] and under 20 nM in assay [3].
As to `O=C(NCc1ccc(C(F)(F)F)nc1)Nc1ccc(Oc2ncnc3cc(N4CCC(O)CC4)ccc23)cc1` [Compound 30, 1-(4-((7-(4-hydroxypiperidin-1-yl)quinazolin-4-yl)oxy)phenyl)-3-((6-(trifluoromethyl)pyridin-3-yl)methyl)urea], in assay [1], the half-inhibitory concentration (IC50) is under 20 nM. Besides, the GI50 in assay [2] and in assay [3] was 20 to 100 nM in each case.
With `O=C(NCc1ccc(C(F)(F)F)nc1)Nc1ccc(Oc2ncnc3cc(Br)ccc23)cc1` [Compound 31, 1-(4-((7-Bromoquinazolin-4-yl)oxy)phenyl)-3-((6-(trifluoromethyl)pyridin-3-yl)methyl)urea], the 50% inhibitory concentration (IC50) in assay [1] fell in the range of 100 to 1000 nM. Moreover, the values for the GI50 in assay [2] and in assay [3] were over 1000 nM and 100 to 1000 nM, respectively.
As for `O=C(NCc1ccc(C(F)(F)F)nc1)Nc1ccc(Oc2ncnc3cc(F)ccc23)cc1` [Compound 32], the IC50 in assay [1] lay in the range of 20 to 100 nM. Besides, the GI50 in assay [2] is over 1000 nM; in assay [3], 100 to 1000 nM.
For `CN(C)c1ccc2c(Oc3ccc(NC(=O)NCc4ccc(C(F)(F)F)nc4)c(Cl)c3)ncnc2c1` [Compound 33] the same measures were 20 to 100 nM, 100 to 1000 nM and 100 to 1000 nM.
`C[C@@H]1CN(c2ccc3c(Oc4ccc(NC(=O)NCc5ccc(C(F)(F)F)nc5)cc4)ncnc3c2)C[C@H](C)N1` [Compound 34, 1-(4-((7-(3,5-Dimethylpiperazin-1-yl)quinazolin-4-yl)oxy)phenyl)-3-((6-(trifluoromethyl)pyridin-3-yl)methyl)urea]: the IC50 in assay [1] is under 20 nM. Also, the figures for the GI50 in assay [2] and in assay [3] were 100 to 1000 nM and under 20 nM, respectively.
As to `CN(CCO)c1ccc2c(Oc3ccc(NC(=O)NCc4ccc(C(F)(F)F)nc4)cc3)ncnc2c1` [Compound 40], the IC50 in assay [1] was in the range of 20 to 100 nM. Also, the GI50 is 100 to 1000 nM in assay [2] and 20 to 100 nM in assay [3].
Regarding `COc1cc(Oc2ncnc3cc(N(C)C)ccc23)ccc1NC(=O)NCc1ccc(C(F)(F)F)nc1` [Compound 42], the IC50 in assay [1] was under 20 nM. The GI50 was in the range of 100 to 1000 nM in assay [2] and 20 to 100 nM in assay [3].
Taken in the same sequence, the figures for `O=C(NCc1ccc(C(F)(F)F)nc1)Nc1ccc(Oc2ncnc3cc(N[C@@H]4CCCC[C@H]4O)ccc23)cc1` [Compound 43] were 20 to 100 nM, 100 to 1000 nM and 100 to 1000 nM.
For `CN(C)CCN(C)c1ccc2c(Oc3ccc(NC(=O)NCc4ccc(C(F)(F)F)nc4)cc3)ncnc2c1` [Compound 44] the same measures were under 20 nM, 100 to 1000 nM and 20 to 100 nM.
Taken in the same sequence, the figures for `CN(CCCN1CCOCC1)c1ccc2c(Oc3ccc(NC(=O)NCc4ccc(C(F)(F)F)nc4)cc3)ncnc2c1` [Compound 45] were under 20 nM, 100 to 1000 nM and 20 to 100 nM.
Take `CN(C)c1ccc2c(Oc3ccc(NC(=O)NCc4ccc(S(N)(=O)=O)cc4)cc3)ncnc2c1` [Compound 49]: in assay [1], the 50% inhibitory concentration (IC50) is under 20 nM. Also, the values for the GI50 in assay [2] and in assay [3] were over 1000 nM and 100 to 1000 nM, respectively.
For `CN(C)c1ccc2c(Oc3ccc(NC(=O)NCc4ccccc4)cc3)ncnc2c1` [Compound 51] the same measures were under 20 nM, 20 to 100 nM and 20 to 100 nM.
For `CN(C)c1ccc2c(Oc3ccc(NC(=O)NCc4ccc(C(F)(F)F)cc4)cc3)ncnc2c1` [Compound 56] the same measures were 20 to 100 nM, 100 to 1000 nM and 20 to 100 nM.
With `CN(C)c1ccc2c(Oc3ccc(NC(=O)NCc4ccc(OC(F)(F)F)cc4)cc3)ncnc2c1` [Compound 57], the IC50 in assay [1] is under 20 nM. The GI50 in assay [2] and in assay [3] was 100 to 1000 nM each time.
As for `CN(C)c1ccc2c(Oc3ccc(NC(=O)NCCc4ccccc4)cc3)ncnc2c1` [Compound 58], in assay [1], the IC50 was under 20 nM. The GI50 is 100 to 1000 nM in assay [2] and 20 to 100 nM in assay [3].
